Data published in the supplement of paper PMC11451515.

Tested on: P12-Ichikawa
Experiment: cell viability relative to DMSO control; higher = less cytotoxic
Conditions: RPMI 5 mM glucose + 10% dialyzed FBS, 48 h
How it was run: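 Before seeding, each leukemia line was adapted for at least four passages in each medium. NOMO1 or SEM cells (500 cells/well) and P12-Ichikawa cells (1000 cells/well) went into 1536-well plates at 5 μl, then received library compounds in DMSO by pin dosing across 11 threefold concentrations, 47 μM to 0.79 nM. Readout was CellTiter-Glo One luminescence after 48 h at 37°C, and viability is given as a per-plate percentage of DMSO wells, with cell-free wells as background.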

CC(C)C[C@H](NC(=O)[C@@H](O)[C@H](N)Cc1ccccc1)C(=O)O
Conditions | cell viability [%]
0.000781 µM | 116
0.00234 µM | 130
0.00702 µM | 124
0.0211 µM | 130
0.0632 µM | 130
0.19 µM | 111
0.569 µM | 120
1.71 µM | 115
5.12 µM | 123
15.4 µM | 104
46.1 µM | 32
